From US11161849B2, “Inhibiting the transient receptor potential al ion channel” (Eli Lilly and Company, priority 2018, dated 2021)

Experiments:
[1] = biological target: human TRPA1 (Homo sapiens (Human), UniProt O75762); test: Inhibition of human TRPA1 in whole cell patch configuration (10 μM AITC activation); assay type: cell-based; details: current activation 10 μM AITC, tested concentrations 320 pM to 3.2 μM, read-out: hTRPA1 IC50
Procedure: Data for TRPA1 inhibition was obtained by this method for the indicated compounds of Formula (I), (II), or (III), with the relevant data included in Table 2 below. All currents were recorded in whole-cell configuration using EPC-9 and EPC-10 amplifiers and Patchmaster software (HEKA) or similar. […] The standard pipette solution consisted of 140 mM CsAsp, 10 mM EGTA, 10 mM HEPES, […], 1.91 mM CaCl2, and up to 0.3 mM Na2GTP, with pH adjusted to 7.2 with CsOH. In addition, a solution containing 145 mM CsCl, 10 mM HEPES, 10 mM EGTA, and up to 0.3 mM Na2GTP and 1 mM MgCl2 (pH 7.2 adjusted with CsOH) can be used. The standard bath solution contained 150 mM NaCl, 10 mM HEPES, 10 mM glucose, 4.5 mM KCl, 1 mM EGTA, 3 mM MgCl2, with pH adjusted to 7.4 with NaOH. In some instances, 2 mM CaCl2 was added in place of EGTA and the concentration of MgCl2 was reduced to 1 mM.
Data were collected either by continuous recordings at −60 mV or by applying voltage ramps from a holding potential of −40 mV every 4 s. Continuous recordings were collected at 400 Hz and digitally filtered off-line at 10 Hz for presentation. Voltage ramps were applied from −100 mV or −80 mV to +100 mV or +80 mV over the course of 400 ms, and data were collected at 10 kHz and filtered at 2.9 kHz. Inward and outward currents were analyzed from the ramps at −80 and 80 mV, respectively. Liquid junction potential correction was not used.
Solutions were switched using a gravity-fed continuous focal perfusion system. To achieve rapid temperature changes, two temperature control, and perfusion systems were employed simultaneously. For temperatures greater than or equal to 22° C., a Warner Instruments bipolar temperature controller (TC-344B) and inline heater (SHM-8) were used. For temperatures below 22° C. a Warner Instruments temperature controller (CL-100) and thermal cooling module (TCM-1) were used. Temperatures were confirmed using a thermistor (Warner Instruments, TA-29), with temperatures at the recorded cell estimated to be within +/−2° C. of those reported.
The antagonist effects of compounds of Formula (I), (II), or (III) against human TRPA1 (“hTRPA1”) in a whole cell patch configuration were evaluated using the in vitro assay described above. The current activation tested was 10 μM AITC, and the tested concentrations ranged from 320 pM to 3.2 μM.

[2] = Solubility in Normal Ringer Solution; assay type: physicochemical; details: saline or isotonic, kinetic from dmso stock, pH 7.4 at room temperature, 40 minutes incubation, from 10 mM DMSO stock
Procedure: Compounds of the invention were also tested for solubility in Normal Ringer Solution. Briefly, compound solubility was determined by dissolving a standard range of volumes of 10 mM DMSO stock of compounds in Normal Ringer Solution (pH 7.4 at room temperature). Following vortex and incubation for 40 minutes at room temperature, solutions were filtered, quenched with acetonitrile, and analyzed by Liquid Chromatography. Solubility limits were determined by comparison to a standard curve. […] Solubility is reported as “greater than” if the observed increase between the last 2 dilutions tested is greater than 2-fold.

Sequence of human TRPA1 (O75762 whole entry): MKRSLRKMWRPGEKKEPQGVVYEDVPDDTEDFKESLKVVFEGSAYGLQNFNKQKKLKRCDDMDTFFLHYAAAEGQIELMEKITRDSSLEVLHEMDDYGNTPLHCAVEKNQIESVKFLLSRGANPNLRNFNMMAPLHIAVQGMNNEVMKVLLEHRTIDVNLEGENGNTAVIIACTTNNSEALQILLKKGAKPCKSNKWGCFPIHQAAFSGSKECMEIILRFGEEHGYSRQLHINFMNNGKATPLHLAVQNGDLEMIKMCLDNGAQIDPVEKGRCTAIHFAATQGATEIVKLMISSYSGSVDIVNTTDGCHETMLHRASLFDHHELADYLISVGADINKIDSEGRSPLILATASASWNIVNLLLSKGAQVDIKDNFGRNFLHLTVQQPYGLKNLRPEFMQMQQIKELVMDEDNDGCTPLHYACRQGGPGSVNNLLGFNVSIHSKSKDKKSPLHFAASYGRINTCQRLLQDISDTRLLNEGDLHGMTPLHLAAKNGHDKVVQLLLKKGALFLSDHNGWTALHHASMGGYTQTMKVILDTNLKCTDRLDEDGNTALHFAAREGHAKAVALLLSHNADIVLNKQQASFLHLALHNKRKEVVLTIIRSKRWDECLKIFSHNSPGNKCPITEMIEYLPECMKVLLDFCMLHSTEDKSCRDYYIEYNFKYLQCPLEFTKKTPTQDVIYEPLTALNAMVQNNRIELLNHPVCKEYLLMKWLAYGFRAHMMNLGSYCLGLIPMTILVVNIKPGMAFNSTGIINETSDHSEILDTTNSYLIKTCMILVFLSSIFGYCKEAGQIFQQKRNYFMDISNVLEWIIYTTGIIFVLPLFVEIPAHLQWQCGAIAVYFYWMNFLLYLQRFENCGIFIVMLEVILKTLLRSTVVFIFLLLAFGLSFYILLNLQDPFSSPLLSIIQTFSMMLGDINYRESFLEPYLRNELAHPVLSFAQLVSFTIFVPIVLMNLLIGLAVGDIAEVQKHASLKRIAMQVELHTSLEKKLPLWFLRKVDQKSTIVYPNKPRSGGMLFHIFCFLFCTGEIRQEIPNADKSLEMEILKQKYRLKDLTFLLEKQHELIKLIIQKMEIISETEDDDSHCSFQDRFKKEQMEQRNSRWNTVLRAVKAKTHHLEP

SMILES	IC50 [1]	solubility at 40 min [2]
Cc1noc(Cn2c(=O)[nH]c3ncn(C(C)C(=O)Nc4cncc(-c5cnc(C(F)(F)F)nc5)n4)c3c2=O)n1 (centres unmarked) [Compound 100]	> 10000 nM	> 31.3 µM
Cc1noc(Cn2c(=O)[nH]c3ncn(C(C)C(=O)Nc4cccc(-c5cnc(C(F)(F)F)nc5)n4)c3c2=O)n1 (centres unmarked) [Compound 101]	559 nM	> 31.3 µM
CC(=O)NC(=O)Cn1c(=O)c2c(ncn2[C@@H](C)C(=O)Nc2cncc(-c3cnc(C(F)(F)F)nc3)n2)n(C)c1=O [Compound 102]	172 nM	> 31.3 µM
CC(=O)NC(=O)Cn1c(=O)c2c(ncn2[C@@H](C)C(=O)Nc2cccc(-c3cnc(C(F)(F)F)nc3)n2)n(C)c1=O [Compound 103]	47.6 nM	> 31.3 µM
C[C@@H](C(=O)Nc1cncc(-c2cnc(C(F)(F)F)nc2)n1)n1cnc2c1c(=O)n(CC(N)=O)c(=O)n2C [Compound 104]	7090 nM	> 31.3 µM
C[C@@H](C(=O)Nc1cccc(-c2cnc(C(F)(F)F)nc2)n1)n1cnc2c1c(=O)n(CC(N)=O)c(=O)n2C [Compound 105]	566 nM	> 31.3 µM
[2H]C([2H])([2H])n1c(=O)n(Cc2nc(C)no2)c(=O)c2c1ncn2C(C)C(=O)Nc1cncc(-c2cnc(C(F)(F)F)nc2)n1 (centres unmarked) [Compound 106]		> 31.3 µM
[2H]C([2H])([2H])n1c(=O)n(Cc2nc(C)no2)c(=O)c2c1ncn2C(C)C(=O)Nc1cccc(-c2cnc(C(F)(F)F)nc2)n1 (centres unmarked) [Compound 107]		> 31.3 µM
